Source: ChEMBL document CHEMBL1143055, “2,3,5-Substituted tetrahydrofurans as cancer chemopreventives. Part 1: synthesis and anti-cancer activities of 5-hydroxymethyl-2,3-diaryl-tetrahydro-furan-3-ols” (2007)

Tests used:
[1] = system: NCI-H522; experiment: Antitumor activity against human NCI-H522 cells; type: functional
[2] = system: 786-0; experiment: Antitumor activity against human 786-0 cells; type: functional
[3] = system: UACC-257; experiment: Antitumor activity against human UACC257 cells; type: functional
[4] = system: OVCAR-5; experiment: Antitumor activity against human OVCAR5 cells; type: functional
[5] = system: MCF7; experiment: Antitumor activity against human MCF7 cells; type: functional
[6] = system: OVCAR-3; experiment: Antitumor activity against human OVCAR-3 cells; type: functional
[7] = system: IGROV-1; experiment: Growth inhibition of human IGROV1 cells at 1 uM; type: functional
[8] = system: CAKI-1; experiment: Antitumor activity against human CAKI-1 cells; type: functional
[9] = system: UACC-62; experiment: Antitumor activity against human UACC62 cells; type: functional
[10] = system: BT-549; experiment: Antitumor activity against human BT549 cells; type: functional
[11] = system: UO-31; experiment: Antitumor activity against human UO31 cells; type: functional
[12] = system: HOP-92; experiment: Antitumor activity against human HOP92 cells; type: functional
[13] = system: SNB-19; experiment: Antitumor activity against human SNB19 cells; type: functional
[14] = system: NCI/ADR-RES; experiment: Antitumor activity against human NCI/ADR-RES cells; type: functional
[15] = Antitumor activity against human HL60 (TB) cells; type: functional, HL-60(TB); conditions: HL-60
[16] = system: HOP-62; experiment: Antitumor activity against human HOP62 cells; type: functional
[17] = system: SK-MEL-5; experiment: Antitumor activity against human SK-MEL-5 cells; type: functional
[18] = system: SF-268; experiment: Antitumor activity against human SF268 cells; type: functional
[19] = system: A498; experiment: Antitumor activity against human A498 cells; type: functional
[20] = system: IGROV-1; experiment: Growth inhibition of human IGROV1 cells at 0.1 uM; type: functional
[21] = system: NCI-H522; experiment: Growth inhibition of human NCI-H522 cells at 10 uM; type: functional
[22] = system: OVCAR-8; experiment: Antitumor activity against human OVCAR8 cells; type: functional
[23] = system: HT-29; experiment: Antitumor activity against human HT29 cells; type: functional
[24] = Antitumor activity against human NCI-H322 cells; type: functional
[25] = system: ACHN; experiment: Antitumor activity against human ACHN cells; type: functional
[26] = system: PC-3; experiment: Antitumor activity against human PC3 cells; type: functional
[27] = system: IGROV-1; experiment: Growth inhibition of human IGROV1 cells at 10 nM; type: functional
[28] = system: HCT-15; experiment: Antitumor activity against human HCT15 cells; type: functional
[29] = system: SR; experiment: Antitumor activity against human SR cells; type: functional
[30] = Antitumor activity against human […] cells; type: functional
[31] = system: SN12C; experiment: Antitumor activity against human SN12C cells; type: functional
[32] = system: OVCAR-4; experiment: Antitumor activity against human OVCAR4 cells; type: functional
[33] = system: MDA-MB-435; experiment: Antitumor activity against human MDA-MB-435 cells; type: functional
[34] = system: NCI-H522; experiment: Growth inhibition of human NCI-H522 cells at 1 uM; type: functional
[35] = system: U-251; experiment: Antitumor activity against human U251 cells; type: functional
[36] = system: NCI-H460; experiment: Antitumor activity against human NCI-H460 cells; type: functional
[37] = system: LOX IMVI; experiment: Antitumor activity against human LOX IMVI cells; type: functional
[38] = system: EKVX; experiment: Antitumor activity against human EKVX cells; type: functional
[39] = system: CCRF-CEM; experiment: Antitumor activity against human CCRF-CEM cells; type: functional
[40] = system: SW-620; experiment: Antitumor activity against human SW620 cells; type: functional
[41] = system: TK-10; experiment: Antitumor activity against human TK10 cells; type: functional
[42] = system: MOLT-4; experiment: Antitumor activity against human MOLT4 cells; type: functional
[43] = system: HCC 2998; experiment: Antitumor activity against human HCC2998 cells; type: functional
[44] = system: Malme-3M; experiment: Antitumor activity against human MALME-3M cells; type: functional
[45] = system: NCI-H23; experiment: Antitumor activity against human NCI-H23 cells; type: functional
[46] = system: DU-145; experiment: Antitumor activity against human DU145 cells; type: functional
[47] = system: SK-OV-3; experiment: Antitumor activity against human SK-OV-3 cells; type: functional
[48] = system: IGROV-1; experiment: Growth inhibition of human IGROV1 cells at 10 uM; type: functional
[49] = system: HCT-116; experiment: Antitumor activity against human HCT116 cells; type: functional
[50] = system: A549; experiment: Antitumor activity against human A549 cells; type: functional
[51] = system: SF-295; experiment: Antitumor activity against human SF295 cells; type: functional
[52] = system: SK-MEL-28; experiment: Antitumor activity against human SK-MEL-28 cells; type: functional
[53] = system: COLO 205; experiment: Antitumor activity against human COLO205 cells; type: functional
[54] = system: RXF 393; experiment: Antitumor activity against human RXF393 cells; type: functional
[55] = system: K562; experiment: Antitumor activity against human K562 cells; type: functional
[56] = system: RPMI-8226; experiment: Antitumor activity against human RPMI8226 cells; type: functional
[57] = system: NCI-H226; experiment: Antitumor activity against human NCI-H226 cells; type: functional
[58] = Antitumor activity against human HS 578T cells; type: functional
[59] = system: IGROV-1; experiment: Antitumor activity against human IGROV1 cells; type: functional
[60] = system: KM12; experiment: Antitumor activity against human KM12 cells; type: functional
[61] = system: SNB-75; experiment: Antitumor activity against human SNB75 cells; type: functional
[62] = system: SF-539; experiment: Antitumor activity against human SF539 cells; type: functional

## OC[C@H]1C[C@](O)(c2ccccc2Cl)[C@@H](c2ccccc2Cl)O1 (relative stereo)
[1]
  GI50: 13.5 µM
[2]
  GI50: 26.3 µM
[3]
  GI50: 19.1 µM
[4]
  GI50: 22.9 µM
[5]
  GI50: 26.9 µM
[6]
  GI50: 19.5 µM
[7]
  inhibition at 1 µM: 32%
[8]
  GI50: 32.4 µM
[9]
  GI50: 16.6 µM
[10]
  GI50: 17 µM
[11]
  GI50: 22.9 µM
[12]
  GI50: 22.4 µM
[13]
  GI50: 31.6 µM
[14]
  GI50: 29.5 µM
[15]
  GI50: 16.6 µM
[16]
  GI50: 31.6 µM
[17]
  GI50: 17 µM
[18]
  GI50: 24 µM
[19]
  GI50: 22.9 µM
[20]
  inhibition at 0.1 µM: 28%
[21]
  inhibition at 10 µM: 36%
[22]
  GI50: 26.3 µM
[23]
  GI50: 17 µM
[24]
  GI50: 32.4 µM
[25]
  GI50: 27.5 µM
[26]
  GI50: 24 µM
[27]
  inhibition at 0.01 µM: 15%
[28]
  GI50: 28.2 µM
[29]
  GI50: 17 µM
[30]
  GI50: 18.6 µM
[31]
  GI50: 20.9 µM
[32]
  GI50: 24.5 µM
[33]
  GI50: 16.2 µM
[34]
  inhibition at 1 µM: 27%
[35]
  GI50: 28.2 µM
[36]
  GI50: 20 µM
[37]
  GI50: 17 µM
[38]
  GI50: 19.1 µM
[39]
  GI50: 27.5 µM
[40]
  GI50: 30.2 µM
[41]
  GI50: 20.9 µM
[42]
  GI50: 17 µM
[43]
  GI50: 29.5 µM
[44]
  GI50: 21.4 µM
[45]
  GI50: 25.7 µM
[46]
  GI50: 26.9 µM
[47]
  GI50: 23.4 µM
[48]
  inhibition at 10 µM: 46%
[49]
  GI50: 25.7 µM
[50]
  GI50: 22.9 µM
[51]
  GI50: 26.9 µM
[52]
  GI50: 26.3 µM
[53]
  GI50: 14.8 µM
[54]
  GI50: 18.6 µM
[55]
  GI50: 20 µM
[56]
  GI50: 21.9 µM
[57]
  GI50: 26.3 µM
[58]
  GI50: 16.2 µM
[59]
  GI50: 11 µM
[60]
  GI50: 25.7 µM
[61]
  GI50: 20.9 µM
[62]
  GI50: 22.4 µM
